Measured values taken from patent US20060069132A1, “Azolecarboxamide herbicides” (priority 2004, published 2006).

Key:
barnyardgrass [1] = assay: Test B pre-/postemergence herbicide test; format: in vivo, Echinochloa crus-galli; details: for Barnyardgrass plant response rating: postemergence, visual rating, scale 0 (no effect) to 100 (complete control)
In short: (§1)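 Herbicidal effect was judged by eye on a 0–100 scale after plants stood 13 to 15 days in the greenhouse following pre- or postemergence treatment with surfactant-containing formulations.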

Surinam grass = assay: Test B pre-/postemergence herbicide test; format: in vivo, Urochloa decumbens; details: for Surinam Grass plant response rating: postemergence, visual rating, scale 0 (no effect) to 100 (complete control)
In short: (§2)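 Visual rating, 0 (no effect) to 100 (complete control), versus untreated controls after 13–15 d in greenhouse. Pre- and postemergence applications (postemergence plants 2–18 cm, 1–4 leaves); flooded paddy arm at 2-leaf stage. Compounds in non-phytotoxic solvent plus surfactant.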

cocklebur = assay: Test B pre-/postemergence herbicide test; format: in vivo, Xanthium strumarium; details: for Cocklebur plant response rating: postemergence, visual rating, scale 0 (no effect) to 100 (complete control)
In short: as §1

corn = assay: Test B pre-/postemergence herbicide test; format: in vivo, Zea mays; details: for Corn plant response rating: postemergence, visual rating, scale 0 (no effect) to 100 (complete control)
In short: as §2

large crabgrass = assay: Test B pre-/postemergence herbicide test; format: in vivo, Digitaria sanguinalis; details: for Crabgrass, Large plant response rating: postemergence, visual rating, scale 0 (no effect) to 100 (complete control)
In short: as §2

giant foxtail = assay: Test B pre-/postemergence herbicide test; format: in vivo, Setaria faberi; details: for Foxtail, Giant plant response rating: postemergence, visual rating, scale 0 (no effect) to 100 (complete control)
In short: as §2

lambsquarters = assay: Test B pre-/postemergence herbicide test; format: in vivo, Chenopodium album; details: for Lambsquarters plant response rating: postemergence, visual rating, scale 0 (no effect) to 100 (complete control)
In short: as §2

morningglory = assay: Test B pre-/postemergence herbicide test; format: in vivo, Ipomoea coccinea; details: for Morningglory plant response rating: postemergence, visual rating, scale 0 (no effect) to 100 (complete control)
In short: as §1

pigweed = assay: Test B pre-/postemergence herbicide test; format: in vivo, Amaranthus retroflexus; details: for Pigweed plant response rating: postemergence, visual rating, scale 0 (no effect) to 100 (complete control)
In short: as §2

rice [2] = assay: Test B pre-/postemergence herbicide test; format: in vivo, Oryza sativa; details: preemergence
In short: as §2

velvetleaf = assay: Test B pre-/postemergence herbicide test; format: in vivo, Abutilon theophrasti; details: for Velvetleaf plant response rating: postemergence, visual rating, scale 0 (no effect) to 100 (complete control)
In short: as §2

blackgrass = assay: Test B postemergence herbicide test; format: in vivo, Alopecurus myosuroides; details: postemergence, visual rating, scale 0 (no effect) to 100 (complete control)
In short: (§3)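 Treated at 2-leaf (paddy) or 1–4-leaf, 2–18 cm (postemergence); greenhouse 13–15 d; visual score vs control, 0 none to 100 complete control; dash = not tested.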

wheat = assay: Test B postemergence herbicide test; format: in vivo, Triticum aestivum; design: key to Wheat plant response rating: 0 = no effect, 100 = complete control; details: postemergence, visual rating, scale 0 (no effect) to 100 (complete control)
In short: (§4)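 Formulated test chemicals went onto postemergence plants measuring 2 to 18 cm, at one to four leaves. For the paddy assay, species had reached two leaves. Scoring took place 13–15 days later by eye, relative to untreated plants, using 0 for no effect up to 100 for full control.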

wild oat = assay: Test B postemergence herbicide test; format: in vivo, Avena fatua; details: postemergence, visual rating, scale 0 (no effect) to 100 (complete control)
In short: as §4

rice [3] = assay: Test B flooded paddy test; format: in vivo, Oryza sativa; details: 1000 g ai/ha, visual rating, scale 0 to 100 (0 no effect, 100 complete control), 13 to 15 days
In short: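 Read-out: visual comparison with controls, scored 0 to 100, where 100 means complete control and 0 no effect. Formulated chemicals were applied postemergence to plants 2–18 cm tall (1- to 4-leaf), or to flooded-paddy plants at the 2-leaf stage, then held 13 to 15 days under glass.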

[4] = system: small flower umbrella sedge; assay: Test B flooded paddy test; format: in vivo, Cyperus difformis; details: 1000 g ai/ha, visual rating, scale 0 to 100 (0 no effect, 100 complete control), 13 to 15 days
In short: as §3

ducksalad [5] = assay: Test B flooded paddy test; format: in vivo, Heteranthera limosa; details: 1000 g ai/ha, visual rating, scale 0 to 100 (0 no effect, 100 complete control), 13 to 15 days
In short: as §3

barnyardgrass [6] = assay: Test B flooded paddy test; format: in vivo, Echinochloa crus-galli; details: 1000 g ai/ha, visual rating, scale 0 to 100 (0 no effect, 100 complete control), 13 to 15 days
In short: as §3

rice [7] = assay: Test C flooded paddy test; format: in vivo, Oryza sativa
In short: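 Plants were grown to the 1- to 4-leaf stage (2–18 cm) and then treated postemergence, or grown to the 2-leaf stage for the flooded paddy test. They were held in a greenhouse for 12 to 14 days and then scored by eye against controls, where 0 is no effect and 100 is complete control.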

[8] = system: smallflower umbrella sedge; assay: Test C flooded paddy test; format: in vivo, Cyperus difformis
ducksalad [9] = assay: Test C flooded paddy test; format: in vivo, Heteranthera limosa
barnyardgrass [10] = assay: Test C flooded paddy test; format: in vivo, Echinochloa crus-galli
In short: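 Greenhouse test with a 12–14 day hold after application and visual comparison with controls. Emerged plants were 1- to 4-leaf stage (2–18 cm) when sprayed postemergence, and the paddy barnyardgrass was at 2 leaves under flooded conditions. 100 = complete control.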

[11] = 125 g ai/ha, 0 = no effect, 100 = complete control, preemergence
[12] = 500 g ai/ha, visual rating 0-100, 0 no effect, 100 complete control, preemergence
[13] = 62 g ai/ha, scale 0 to 100 (0 no effect, 100 complete control)
[14] = 125 g ai/ha, scale 0 to 100 (0 no effect, 100 complete control)
[15] = 250 g ai/ha, scale of 0 to 100, 0 is no effect, 100 is complete control
[16] = 500 g ai/ha, visual rating after 12 to 14 days, scale 0 to 100 (0 no effect, 100 complete control)

CCOC(=O)c1cccc(NC(=O)c2cn(C(C)(C)C)nc2CC)c1 [Compound 186]
0: Barnyardgrass plant response rating (0 to 100 scale) (barnyardgrass [1]; [11]) | Surinam Grass plant response rating (0 to 100 scale) (Surinam grass; [11]) | Cocklebur plant response rating (0 to 100 scale) (cocklebur; [11]) | Plant response rating, Cocklebur (cocklebur; [12]) | Corn plant response rating (0 to 100 scale) (corn; [11]) | Crabgrass, Large plant response rating (0 to 100 scale) (large crabgrass; [11]) | Foxtail, Giant plant response rating (0 to 100 scale) (giant foxtail; [11]) | Lambsquarters plant response rating (0 to 100 scale) (lambsquarters; [11]) | Plant response rating, Lambsquarters (lambsquarters; [12]) | Morningglory plant response rating (0 to 100 scale) (morningglory; [11]) | Plant response rating, Morningglory (morningglory; [12]) | Pigweed plant response rating (0 to 100 scale) (pigweed; [11]) | Plant response rating, Pigweed (pigweed; [12]) | Rice plant response rating (0 to 100 scale) (rice [2]; 125 g ai/ha, 0 = no effect, 100 = complete control)
10: Plant response rating, Barnyardgrass (barnyardgrass [1]; [12]) | Barnyardgrass plant response rating (barnyardgrass [1]; 125 g ai/ha) | Plant response rating, Surinam Grass (Surinam grass; [12]) | Surinam Grass plant response rating (Surinam grass; 125 g ai/ha) | Plant response rating, Corn (corn; [12]) | Plant response rating, Crabgrass, Large (large crabgrass; [12]) | Crabgrass, Large plant response rating (large crabgrass; 125 g ai/ha) | Crabgrass, Large plant response rating (large crabgrass; 500 g ai/ha) | Plant response rating, Foxtail, Giant (giant foxtail; [12]) | Foxtail, Giant plant response rating (giant foxtail; 125 g ai/ha) | Lambsquarters plant response rating (lambsquarters; 125 g ai/ha) | Velvetleaf plant response rating (0 to 100 scale) (velvetleaf; [11]) | Blackgrass plant response rating (blackgrass; 125 g ai/ha) | Wheat plant response rating (wheat; 125 g ai/ha) | Oat, Wild plant response rating (wild oat; 125 g ai/ha)
70: Plant response rating, Barnyardgrass (barnyardgrass [10]; [16])
80: Sedge, Umbrella plant response rating [8, 13] | Sedge, Umbrella plant response rating [8, 14] | Sedge, Umbrella plant response rating [8, 15] | Plant response rating, Ducksalad (ducksalad [9]; [16])
90: Cocklebur plant response rating (cocklebur; 500 g ai/ha) | Sedge, Umbrella plant response rating [4] | Ducksalad plant response rating (ducksalad [5])
30: Surinam Grass plant response rating (Surinam grass; 500 g ai/ha) | Lambsquarters plant response rating (lambsquarters; 500 g ai/ha) | Morningglory plant response rating (morningglory; 500 g ai/ha) | Blackgrass plant response rating (blackgrass; 500 g ai/ha) | Rice plant response rating (rice [3]) | Barnyardgrass plant response rating (barnyardgrass [6]) | Barnyardgrass plant response rating (barnyardgrass [10]; 125 g ai/ha, scale of 0 to 100, 0 is no effect, 100 is complete control)
40: Rice plant response rating (rice [7]; [13]) | Ducksalad plant response rating (ducksalad [9]; [14])
65: Plant response rating, Rice (rice [7]; [16]) | Ducksalad plant response rating (ducksalad [9]; [15])
55: Rice plant response rating (rice [7]; [14])
50: Barnyardgrass plant response rating (barnyardgrass [1]; 500 g ai/ha)
60: Cocklebur plant response rating (cocklebur; 125 g ai/ha) | Pigweed plant response rating (pigweed; 125 g ai/ha) | Pigweed plant response rating (pigweed; 500 g ai/ha) | Velvetleaf plant response rating (velvetleaf; 125 g ai/ha) | Velvetleaf plant response rating (velvetleaf; 500 g ai/ha) | Rice plant response rating (rice [7]; [15])
15: Ducksalad plant response rating (ducksalad [9]; [13])
20: Corn plant response rating (corn; 125 g ai/ha) | Corn plant response rating (corn; 500 g ai/ha) | Foxtail, Giant plant response rating (giant foxtail; 500 g ai/ha) | Morningglory plant response rating (morningglory; 125 g ai/ha) | Plant response rating, Rice (rice [2]; 500 g ai/ha, visual rating 0-100, 0 no effect, 100 complete control) | Plant response rating, Velvetleaf (velvetleaf; [12]) | Wheat plant response rating (wheat; 500 g ai/ha) | Oat, Wild plant response rating (wild oat; 500 g ai/ha) | Barnyardgrass plant response rating (barnyardgrass [10]; [13])
85: Plant response rating, Sedge, Umbrella [8, 16]
45: Barnyardgrass plant response rating (barnyardgrass [10]; [15])
